Measured values as given in paper PMC10916402, “Meropenem-ANT3310, a unique β-lactam-β-lactamase inhibitor combination with expanded antibacterial spectrum against Gram-negative pathogens including carbapenem-resistant Acinetobacter baumannii” (Antimicrobial Agents and Chemotherapy, 2024).
Values after ≈ are worked out from the molar mass of the structure shown. Read-outs that look alike come from different tables or passages of the source.

Tests used:
[1] = tested on: KPC-producing Enterobacterales (KPC-CRE); assay: organism not typed; format: cell-based
Description: (§1) All isolates were randomly selected from the frozen culture collection of IHMA collected in 2018 and 2019. Matrix-assisted laser desorption ionization-time of flight mass spectrometry was used to confirm the identity of the organisms tested (Bruker Daltonics, Bremen, Germany).
(§2) MICs for all antimicrobial agents were determined at IHMA by broth microdilution in accordance with both CLSI ([17]) and EUCAST ([18]) guidelines. Microtiter panels were prepared by IHMA and stored at −70°C in cation-adjusted Mueller Hinton broth (CAMHB) (Becton Dickinson). Iron-depleted CAMHB was used to test cefiderocol. Panels containing ANT3310 were prepared fresh on the day of testing. […] MIC values corresponded to the first well with no visible growth. Quality control testing was performed on each day of testing with E. coli ATCC 25922, P. aeruginosa ATCC 27853, K. pneumoniae ATCC 700603 and BAA 1705, and A. baumannii NCTC 13304. MICs were interpreted using 2023 CLSI ([17]) and EUCAST ([18]) BPs.

[2] = tested on: OXA-producing Enterobacterales (OXA-CRE); assay: organism not typed; format: cell-based
Description: as §1, §2

[3] = tested on: carbapenem-resistant Acinetobacter baumannii (CRAB) clinical isolates; assay: Broth microdilution MIC, CRAB isolates; format: cell-based; conditions: for CLSI % Res / CLSI % Sus: CLSI BP; for CLSI % Res: for MEM-ANT3310 % at ≥16 µg/mL; for CLSI % Sus: for MEM-ANT3310 % inhibited at ≤8 µg/mL; for EUCAST % Res / EUCAST % Sus: EUCAST BP; for MIC50 / MIC90: Acinetobacter baumannii; for MIC50: read-out: MIC50; for MIC90: read-out: MIC90
Description: as §1, §2

[4] = tested on: A. baumannii clinical isolates; assay: Broth microdilution MIC, A. baumannii clinical isolates; format: cell-based, Acinetobacter baumannii; conditions: for CLSI % Res / CLSI % Sus: CLSI BP; for CLSI % Res: for MEM-ANT3310 % at ≥16 µg/mL; for CLSI % Sus: for MEM-ANT3310 % inhibited at ≤8 µg/mL; for EUCAST % Res / EUCAST % Sus: EUCAST BP; for MIC50 / MIC90: Acinetobacter baumannii; for MIC50: read-out: MIC50; for MIC90: read-out: MIC90
Description: as §1, §2

[5] = 180 KPC-producing Enterobacterales, EUCAST BP
[6] = 252 OXA-producing Enterobacterales, EUCAST BP
[7] = 2018 Global collection, CRAB (MEM MICs >4 µg/mL), N 363
[8] = 2018 Global collection, CRAB, N 363
[9] = 2018 Global collection, All A. baumannii, N 500
[10] = A. baumannii, one or both of the 2018/2019 collections
[11] = 2019 Global collection, CRAB (MEM MICs >4 µg/mL), N 340
[12] = 2019 Global collection, CRAB, N 340
[13] = 2019 Global collection, All A. baumannii, N 405

Structure (SMILES): NCC[C@H](O)C(=O)N[C@@H]1C[C@H](N)[C@@H](O[C@H]2O[C@H](CN)[C@@H](O)[C@H](O)[C@H]2O)[C@H](O)[C@H]1O[C@H]1O[C@H](CO)[C@@H](O)[C@H](N)[C@H]1O [Amikacin, amikacin]
- MIC50 [1]: 16 µg/mL (≈ 27.3 µM)
- MIC90 [1]: 64 µg/mL (≈ 109 µM)
- CLSI % Res ([1]; 180 KPC-producing Enterobacterales, CLSI BP, for MEM-ANT3310 % at ≥16 µg/mL): 11.7%
- CLSI % Sus ([1]; 180 KPC-producing Enterobacterales, CLSI BP, for MEM-ANT3310 % inhibited at ≤8 µg/mL): 57.8%
- EUCAST % Res [1, 5]: 54.4%
- EUCAST % Sus [1, 5]: 45.6%
- MIC50 [2]: 16 µg/mL (≈ 27.3 µM)
- MIC90 [2]: > 64 µg/mL
- CLSI % Res ([2]; 252 OXA-producing Enterobacterales, CLSI BP, for MEM-ANT3310 % at ≥16 µg/mL): 32.1%
- CLSI % Sus ([2]; 252 OXA-producing Enterobacterales, CLSI BP, for MEM-ANT3310 % inhibited at ≤8 µg/mL): 59.5%
- EUCAST % Res [2, 6]: 52.0%
- EUCAST % Sus [2, 6]: 48.0%
- Number of isolates inhibited at MIC of 0.5 µg/mL [3, 7]: 1
- Number of isolates inhibited at MIC of 1 µg/mL [3, 7]: 9
- Number of isolates inhibited at MIC of 2 µg/mL [3, 7]: 25
- Number of isolates inhibited at MIC of 4 µg/mL [3, 7]: 20
- Number of isolates inhibited at MIC of 8 µg/mL [3, 7]: 5
- Number of isolates inhibited at MIC of 16 µg/mL [3, 7]: 10
- Number of isolates inhibited at MIC of 32 µg/mL [3, 7]: 11
- Number of isolates inhibited at MIC of >32 µg/mL [3, 7]: 282
- CLSI % Res [3, 8]: 77.7%
- CLSI % Sus [3, 8]: 19.3%
- EUCAST % Res [3, 8]: 83.5%
- EUCAST % Sus [3, 8]: 16.5%
- MIC50 [3, 7]: > 32 µg/mL
- MIC90 [3, 7]: > 32 µg/mL
- Number of isolates inhibited at MIC of 0.5 µg/mL [4, 9]: 2
- Number of isolates inhibited at MIC of 1 µg/mL [4, 9]: 42
- Number of isolates inhibited at MIC of 2 µg/mL [4, 9]: 96
- Number of isolates inhibited at MIC of 4 µg/mL [4, 9]: 33
- Number of isolates inhibited at MIC of 8 µg/mL [4, 9]: 12
- Number of isolates inhibited at MIC of 16 µg/mL [4, 9]: 11
- Number of isolates inhibited at MIC of 32 µg/mL [4, 9]: 13
- Number of isolates inhibited at MIC of >32 µg/mL [4, 9]: 291
- CLSI % Res [4, 9]: 58.2%
- CLSI % Sus [4, 9]: 39.2%
- EUCAST % Res [4, 9]: 63%
- EUCAST % Sus [4, 9]: 37%
- MIC50 [4, 9]: > 32 µg/mL
- MIC90 [4, 9]: > 32 µg/mL
- MIC90 [4, 10]: ≥ 32 µg/mL

Structure (SMILES): C[C@H]1COc2c(N3CCN(C)CC3)c(F)cc3c(=O)c(C(=O)O)cn1c23 [Levofloxacin, levofloxacin]
- Number of isolates inhibited at MIC of 2 µg/mL [3, 11]: 9
- Number of isolates inhibited at MIC of 4 µg/mL [3, 11]: 29
- Number of isolates inhibited at MIC of 8 µg/mL [3, 11]: 92
- Number of isolates inhibited at MIC of 16 µg/mL [3, 11]: 97
- CLSI % Res [3, 12]: 86.2%
- CLSI % Sus [3, 12]: 5.3%
- EUCAST % Res [3, 12]: 97.3%
- EUCAST % Sus [3, 12]: 2.7%
- Number of isolates inhibited at MIC of >16 µg/mL ([3]; 2019 Global collection, CRAB, N 340, footnote c): 104^c
- Number of isolates inhibited at MIC of ≤0.25 µg/mL ([3]; 2019 Global collection, CRAB, N 340, footnote d): 9^d
- MIC50 [3, 11]: 16 µg/mL (≈ 44.3 µM)
- MIC90 [3, 11]: > 16 µg/mL
- Number of isolates inhibited at MIC of 0.5 µg/mL [4, 13]: 1
- Number of isolates inhibited at MIC of 1 µg/mL [4, 13]: 1
- Number of isolates inhibited at MIC of 2 µg/mL [4, 13]: 10
- Number of isolates inhibited at MIC of 4 µg/mL [4, 13]: 33
- Number of isolates inhibited at MIC of 8 µg/mL [4, 13]: 96
- Number of isolates inhibited at MIC of 16 µg/mL [4, 13]: 99
- CLSI % Res [4, 13]: 73.8%
- CLSI % Sus [4, 13]: 18%
- EUCAST % Res [4, 13]: 84.4%
- EUCAST % Sus [4, 13]: 15.3%
- Number of isolates inhibited at MIC of >16 µg/mL ([4]; 2019 Global collection, All A. baumannii, N 405, footnote c): 104^c
- Number of isolates inhibited at MIC of ≤0.25 µg/mL ([4]; 2019 Global collection, All A. baumannii, N 405, footnote d): 61^d
- MIC50 [4, 13]: 16 µg/mL (≈ 44.3 µM)
- MIC90 [4, 13]: > 16 µg/mL
- MIC90 [4, 10]: ≥ 32 µg/mL

Structure (SMILES): CN(C)[C@@H]1C(O)=C(C(N)=O)C(=O)[C@@]2(O)C(O)=C3C(=O)c4c(O)c(NC(=O)CN5CCCC5)cc(F)c4C[C@H]3C[C@@H]12 [Eravacycline, eravacycline]
- MIC50 [1]: 0.5 µg/mL (≈ 0.895 µM)
- MIC90 [1]: 2 µg/mL (≈ 3.58 µM)
- MIC50 [2]: 1 µg/mL (≈ 1.79 µM)
- MIC90 [2]: 2 µg/mL (≈ 3.58 µM)
- Number of isolates inhibited at MIC of 0.25 µg/mL [3, 7]: 43
- Number of isolates inhibited at MIC of 0.5 µg/mL [3, 7]: 73
- Number of isolates inhibited at MIC of 1 µg/mL [3, 7]: 186
- Number of isolates inhibited at MIC of 2 µg/mL [3, 7]: 53
- Number of isolates inhibited at MIC of 4 µg/mL [3, 7]: 3
- Number of isolates inhibited at MIC of ≤0.125 µg/mL [3, 7]: 5
- MIC50 [3, 7]: 1 µg/mL (≈ 1.79 µM)
- MIC90 [3, 7]: 2 µg/mL (≈ 3.58 µM)
- Number of isolates inhibited at MIC of 0.25 µg/mL [4, 9]: 66
- Number of isolates inhibited at MIC of 0.5 µg/mL [4, 9]: 83
- Number of isolates inhibited at MIC of 1 µg/mL [4, 9]: 194
- Number of isolates inhibited at MIC of 2 µg/mL [4, 9]: 55
- Number of isolates inhibited at MIC of 4 µg/mL [4, 9]: 3
- Number of isolates inhibited at MIC of ≤0.125 µg/mL [4, 9]: 99
- MIC50 [4, 9]: 1 µg/mL (≈ 1.79 µM)
- MIC90 [4, 9]: 2 µg/mL (≈ 3.58 µM)
- MIC90 [4, 10]: 2 µg/mL (≈ 3.58 µM)
